assay: recombinant UMI read abundance after kanamycin selection (control-corrected) (log10(CPM+1)); higher = more efficient recombination; extreme values may be limits of the assay; sequences stand for … in AGTGCAGAGAAAATCGGCCAGTTTTCTCTGCCTGCAGTCCGCATGCCGTGGGACCCCTTGGGTTCTAACCTGTTGCCTAGATTTATGCAGCGGACTGCCTTTCTCCCAAAGTGATAAACCGG…AGGTTGGTTTCACT; site = the 11-nt donor
In short: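 The measure is log10(CPM+1) for recombinant UMIs. These were PCR-amplified across the donor–target junction and sequenced after Escherichia coli carrying a donor and donor-binding-loop pair library and a target plasmid with T7-inducible IS621 bridge recombinase was plated on IPTG (0.07 mM) plus kanamycin or unselected. CPM were averaged over two replicates and scaled by control-derived factors.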
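Further: IS621 bridge recombinase in Escherichia coli cells against a fixed T5 target plasmid.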

Sequence	recombinant UMI read abundance (log10)
AGTCTTACATGGACCGGTTTTCCCGGTAATCCGTATTTGCG (site AGTCTTACTCG)	1.32
AGTGAATCATGGACCGGTTTTCCCGGTAATCCGTATTTGAG (site AGTGAATCTCT)	2.17
AGTGCTGCATGGACCGGTTTTCCCGGTAATCCGTATTTGCA (site AGTGCTGCTTG)	1.21
AGTGGAACATGGACCGGTTTTCCCGGTAATCCGTATTTGTT (site AGTGGAACTAA)	1.56
AGTGGAACATGGACCGGTTTTCCCGGTAATCCGTATTTGTT (site CGTGGAACTAA)	0.295
AGTGGAACATGGACCGGTTTTCCCGGTAATCCGTATTTGTT (site GGTGGAACTAA)	0.00617
AGTGGAACATGGACCGGTTTTCCCGGTAATCCGTATTTGTT (site TGTGGAACTAA)	0.00958
AGTGGGTCATGGACCGGTTTTCCCGGTAATCCGTATTTGCA (site AGTGGGTCTTG)	2.92
AGTGTATCATGGACCGGTTTTCCCGGTAATCCGTATTTGCA (site ACAGTATCTTG)	1.69
AGTGTATCATGGACCGGTTTTCCCGGTAATCCGTATTTGCA (site AGTGTATCTTG)	2.25
AGTGTCACATGGACCGGTTTTCCCGGTAATCCGTATTTGGC (site AGTGTCACTGC)	2.62
AGTGTCTCATGGACCGGTTTTCCCGGTAATCCGTATTTGCA (site AGTGTCTCTTG)	3.07
AGTTAGACATGGACCGGTTTTCCCGGTAATCCGTATTTGAG (site AGTTAGACTCT)	1.23
AGTTAGACATGGACCGGTTTTCCCGGTAATCCGTATTTGAG (site CGTTAGACTCT)	1.06
AGTTAGACATGGACCGGTTTTCCCGGTAATCCGTATTTGAG (site GGTTAGACTCT)	0.353
AGTTAGACATGGACCGGTTTTCCCGGTAATCCGTATTTGAG (site TGTTAGACTCT)	0.674
AGTTATTCATGGACCGGTTTTCCCGGTAATCCGTATTTGCA (site AGTTATTCTTG)	2.11
AGTTCAGCATGGACCGGTTTTCCCGGTAATCCGTATTTGGG (site AGATCAGCTCC)	0.0116
AGTTCAGCATGGACCGGTTTTCCCGGTAATCCGTATTTGGG (site AGCTCAGCTCC)	0.0322
AGTTCAGCATGGACCGGTTTTCCCGGTAATCCGTATTTGGG (site AGGTCAGCTCC)	0.0161
AGTTCAGCATGGACCGGTTTTCCCGGTAATCCGTATTTGGG (site AGTTCAGCTCC)	0.017
AGTTCTGCATGGACCGGTTTTCCCGGTAATCCGTATTTGTT (site AGTTCTGCTAA)	0.0478
AGTTGATCATGGACCGGTTTTCCCGGTAATCCGTATTTGTC (site AGTTGATCTGA)	1.94
ATAAAATCATGGACCGGTTTTCCCGGTAATCCGTATTTGCC (site ATAAAATCTGG)	1.66
ATAAAGCCATGGACCGGTTTTCCCGGTAATCCGTATTTGAC (site ATAAAGCCTGT)	0

Sequence	recombinant UMI read abundance (log10)
ATAAAGCCATGGACCGGTTTTCCCGGTAATCCGTATTTGAC (site ATAACGCCTGT)	0
ATAAAGCCATGGACCGGTTTTCCCGGTAATCCGTATTTGAC (site ATAAGGCCTGT)	0
ATAAAGCCATGGACCGGTTTTCCCGGTAATCCGTATTTGAC (site ATAATGCCTGT)	0
ATAACAACATGGACCGGTTTTCCCGGTAATCCGTATTTGAA (site ATAACAACTTT)	1.46
ATAACAGCATGGACCGGTTTTCCCGGTAATCCGTATTTGTT (site ATAACAGCTAA)	1.92
ATAACGCCATGGACCGGTTTTCCCGGTAATCCGTATTTGAC (site ATAAAGCCTGT)	0
ATAACGCCATGGACCGGTTTTCCCGGTAATCCGTATTTGAC (site ATAACGCCTGT)	0.696
ATAACGCCATGGACCGGTTTTCCCGGTAATCCGTATTTGAC (site ATAAGGCCTGT)	0
ATAACGCCATGGACCGGTTTTCCCGGTAATCCGTATTTGAC (site ATAATGCCTGT)	0
ATAAGACCATGGACCGGTTTTCCCGGTAATCCGTATTTGAC (site ATAAGACCTGT)	0
ATAAGACCATGGACCGGTTTTCCCGGTAATCCGTATTTGAC (site ATAAGCCCTGT)	0
ATAAGACCATGGACCGGTTTTCCCGGTAATCCGTATTTGAC (site ATAAGGCCTGT)	0
ATAAGACCATGGACCGGTTTTCCCGGTAATCCGTATTTGAC (site ATAAGTCCTGT)	0
ATAAGGCCATGGACCGGTTTTCCCGGTAATCCGTATTTGAC (site AAAAGGCCTGT)	0
ATAAGGCCATGGACCGGTTTTCCCGGTAATCCGTATTTGAC (site ACAAGGCCTGT)	0
ATAAGGCCATGGACCGGTTTTCCCGGTAATCCGTATTTGAC (site AGAAGGCCTGT)	0
ATAAGGCCATGGACCGGTTTTCCCGGTAATCCGTATTTGAC (site ATAAAGCCTGT)	0
ATAAGGCCATGGACCGGTTTTCCCGGTAATCCGTATTTGAC (site ATAACGCCTGT)	0.0185
ATAAGGCCATGGACCGGTTTTCCCGGTAATCCGTATTTGAC (site ATAAGACCTGT)	0
ATAAGGCCATGGACCGGTTTTCCCGGTAATCCGTATTTGAC (site ATAAGCCCTGT)	0
ATAAGGCCATGGACCGGTTTTCCCGGTAATCCGTATTTGAC (site ATAAGGACTGT)	0.956
ATAAGGCCATGGACCGGTTTTCCCGGTAATCCGTATTTGAC (site ATAAGGCCTAT)	0.214
ATAAGGCCATGGACCGGTTTTCCCGGTAATCCGTATTTGAC (site ATAAGGCCTCT)	0.0671
ATAAGGCCATGGACCGGTTTTCCCGGTAATCCGTATTTGAC (site ATAAGGCCTGA)	0
ATAAGGCCATGGACCGGTTTTCCCGGTAATCCGTATTTGAC (site ATAAGGCCTGC)	0.147

Sequence	recombinant UMI read abundance (log10)
ATAAGGCCATGGACCGGTTTTCCCGGTAATCCGTATTTGAC (site ATAAGGCCTGG)	0
ATAAGGCCATGGACCGGTTTTCCCGGTAATCCGTATTTGAC (site ATAAGGCCTGT)	0
ATAAGGCCATGGACCGGTTTTCCCGGTAATCCGTATTTGAC (site ATAAGGCCTTT)	0.131
ATAAGGCCATGGACCGGTTTTCCCGGTAATCCGTATTTGAC (site ATAAGGGCTGT)	0
ATAAGGCCATGGACCGGTTTTCCCGGTAATCCGTATTTGAC (site ATAAGGTCTGT)	1.87
ATAAGGCCATGGACCGGTTTTCCCGGTAATCCGTATTTGAC (site ATAAGTCCTGT)	0
ATAAGGCCATGGACCGGTTTTCCCGGTAATCCGTATTTGAC (site ATAATGCCTGT)	0
ATAAGGCCATGGACCGGTTTTCCCGGTAATCCGTATTTGAC (site ATACGGCCTGT)	0
ATAAGGCCATGGACCGGTTTTCCCGGTAATCCGTATTTGAC (site ATAGGGCCTGT)	0
ATAAGGCCATGGACCGGTTTTCCCGGTAATCCGTATTTGAC (site ATATGGCCTGT)	0.00516
ATAAGGCCATGGACCGGTTTTCCCGGTAATCCGTATTTGAC (site ATCAGGCCTGT)	0
ATAAGGCCATGGACCGGTTTTCCCGGTAATCCGTATTTGAC (site ATGAGGCCTGT)	0
ATAAGGCCATGGACCGGTTTTCCCGGTAATCCGTATTTGAC (site ATTAGGCCTGT)	0
ATAAGGCCATGGACCGGTTTTCCCGGTAATCCGTATTTGAC (site CTAAGGCCTGT)	0
ATAAGGCCATGGACCGGTTTTCCCGGTAATCCGTATTTGAC (site GTAAGGCCTGT)	0
ATAAGGCCATGGACCGGTTTTCCCGGTAATCCGTATTTGAC (site TTAAGGCCTGT)	0
ATAAGGCCATGGACCGGTTTTCCCGGTAATCCGTATTTGCC (site ATAAGGCCTGA)	0
ATAAGGCCATGGACCGGTTTTCCCGGTAATCCGTATTTGCC (site ATAAGGCCTGC)	0
ATAAGGCCATGGACCGGTTTTCCCGGTAATCCGTATTTGCC (site ATAAGGCCTGG)	1.07
ATAAGGCCATGGACCGGTTTTCCCGGTAATCCGTATTTGCC (site ATAAGGCCTGT)	0
ATAAGTCCATGGACCGGTTTTCCCGGTAATCCGTATTTGAC (site ATAAGACCTGT)	0
ATAAGTCCATGGACCGGTTTTCCCGGTAATCCGTATTTGAC (site ATAAGCCCTGT)	0.569
ATAAGTCCATGGACCGGTTTTCCCGGTAATCCGTATTTGAC (site ATAAGGCCTGT)	0.787
ATAAGTCCATGGACCGGTTTTCCCGGTAATCCGTATTTGAC (site ATAAGTCCTGT)	2.13
ATAATCGCATGGACCGGTTTTCCCGGTAATCCGTATTTGGG (site ATAATCGCTCC)	0.324
